Assay results: US20260184687A1, “DIHYDROINDENE DERIVATIVES AS MALT1 INHIBITORS” (C4X Discovery Limited, priority 2022, published 2026)
pIC50: −log10 of the molar value.

biological target: T1, FL hMALT1 enzyme (Homo sapiens, UniProt Q9UDY8); experiment: biochemical
T1 sequence (Q9UDY8 1-824): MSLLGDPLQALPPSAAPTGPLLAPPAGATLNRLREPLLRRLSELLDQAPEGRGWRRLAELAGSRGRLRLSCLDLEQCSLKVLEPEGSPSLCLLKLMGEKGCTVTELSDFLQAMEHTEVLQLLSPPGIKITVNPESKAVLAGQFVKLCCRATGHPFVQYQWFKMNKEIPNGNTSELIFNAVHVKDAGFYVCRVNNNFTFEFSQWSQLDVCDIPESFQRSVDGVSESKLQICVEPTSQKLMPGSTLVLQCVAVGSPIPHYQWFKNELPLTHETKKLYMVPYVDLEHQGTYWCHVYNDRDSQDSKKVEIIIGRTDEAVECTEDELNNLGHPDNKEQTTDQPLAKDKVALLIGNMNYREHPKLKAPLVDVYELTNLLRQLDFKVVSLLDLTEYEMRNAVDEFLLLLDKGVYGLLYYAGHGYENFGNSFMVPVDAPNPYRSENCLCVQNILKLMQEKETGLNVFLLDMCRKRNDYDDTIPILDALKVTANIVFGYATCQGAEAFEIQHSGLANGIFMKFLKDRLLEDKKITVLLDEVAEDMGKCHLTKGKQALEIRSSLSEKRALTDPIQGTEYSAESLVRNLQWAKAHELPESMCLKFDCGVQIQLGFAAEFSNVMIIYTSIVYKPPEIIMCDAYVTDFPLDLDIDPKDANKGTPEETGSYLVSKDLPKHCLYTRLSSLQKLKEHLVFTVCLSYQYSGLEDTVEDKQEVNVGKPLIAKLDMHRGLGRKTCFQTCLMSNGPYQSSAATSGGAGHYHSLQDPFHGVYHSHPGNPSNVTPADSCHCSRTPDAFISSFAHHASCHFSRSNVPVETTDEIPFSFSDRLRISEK
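Further: Cell-free protease assay: enzyme preincubated with compound 30 min at room temperature, then cleavage of fluorogenic Ac-LVSR-AMC substrate (100 µM) tracked by fluorescence (ex 360/em 460 nm).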

| pIC50 | SMILES |
| --- | --- |
| 6.52 | CN(C(=O)C1CCCNC1)[C@@H](c1ccc(NC2Cc3ccccc3C2(C)C)cn1)C(F)(F)F (single isomer, unassigned) [Example 127] |
| 6.40 | CN1CCCC(C(=O)N(C)[C@@H](c2ccc(NC3Cc4ccccc4C3(C)C)cn2)C(F)(F)F)C1 (single isomer, unassigned) [Example 128] |
| 6.59 | CN1CCCC(C(=O)N(C)[C@@H](c2ccc(NC3Cc4ccccc4C3(C)C)cn2)C(F)(F)F)C1 (single isomer, unassigned) [Example 131] |
| 6.35 | CN(C(=O)C1CNC(=O)CO1)[C@@H](c1ccc(NC2Cc3ccccc3C2(C)C)cn1)C(F)(F)F (single isomer, unassigned) [Example 135] |
| 6.17 | CN(C(=O)N1CCS(=O)(=O)CC1)[C@@H](c1ccc(NC2Cc3ccccc3C2(C)C)cn1)C(F)(F)F (single isomer, unassigned) [Example 143] |
| 6.64 | CN1CCC(C(=O)N(C)[C@@H](c2ccc(NC3Cc4ccccc4C3(C)C)nc2)C(F)(F)F)CC1 (single isomer, unassigned) [Example 145] |
| 6.59 | CN(C(=O)C1CCNCC1)[C@@H](c1ccc(NC2Cc3ccccc3C2(C)C)cn1)C(F)(F)F (single isomer, unassigned) [Example 147] |
| 6.54 | CN(C(=O)C1CCNCC1)[C@@H](c1ccc(NC2Cc3ccccc3C2(C)C)nc1)C(F)(F)F (single isomer, unassigned) [Example 148] |
| 6.62 | CN(C(=O)C1CCNCC1)[C@@H](c1ccc(NC2Cc3ccccc3C2(C)C)nc1)C(F)(F)F (single isomer, unassigned) [Example 149] |
| 6.82 | CN(C(=O)C1CC2(CCN2)C1)[C@@H](c1ccc(NC2Cc3ccccc3C2(C)C)cn1)C(F)(F)F (single isomer, unassigned) [Example 154] |
| 6.74 | CN(C(=O)C1CC2(CCN2)C1)[C@@H](c1ccc(NC2Cc3ccccc3C2(C)C)cn1)C(F)(F)F (single isomer, unassigned) [Example 155] |
| 6.36 | CN(C(=O)[C@H]1C[C@]2(CCN2C)C1)[C@@H](c1ccc(NC2Cc3ccccc3C2(C)C)cn1)C(F)(F)F (single isomer, unassigned) [Example 158] |
| 6.51 | CN(C(=O)C1COCC(=O)N1)[C@@H](c1ccc(NC2Cc3ccccc3C2(C)C)cn1)C(F)(F)F (single isomer, unassigned) [Example 161] |
| 6.96 | CN(C(=O)C1COCC(=O)N1)[C@@H](c1ccc(NC2Cc3ccccc3C2(C)C)cn1)C(F)(F)F (single isomer, unassigned) [Example 162] |
| 6.72 | CN(C(=O)C1COCC(=O)N1)[C@@H](c1ccc(NC2Cc3ccccc3C2(C)C)cn1)C(F)(F)F (single isomer, unassigned) [Example 163] |
| 5.18 | COc1cccc2c1CC(Nc1ccc([C@H](N(C)C(=O)C3CCS(=O)(=O)CC3)C(F)(F)F)nc1)C2 (single isomer, unassigned) [Example 177] |
| 6.59 | COc1cccc2c1CC(Nc1ccc([C@H](N(C)C(=O)C3CCS(=O)(=O)CC3)C(F)(F)F)nc1)C2 (single isomer, unassigned) [Example 178] |

| pIC50 | SMILES |
| --- | --- |
| 5.48 | CN(C(=O)C1CCS(=O)(=O)CC1)[C@@H](c1ccc(NC2Cc3cccc(C(F)(F)F)c3C2)cn1)C(F)(F)F (single isomer, unassigned) [Example 190] |
| 5.59 | CCc1cccc2c1CC(Nc1ccc([C@H](N(C)C(=O)C3CCS(=O)(=O)CC3)C(F)(F)F)nc1)C2 (single isomer, unassigned) [Example 197] |
| 5.96 | CN(C(=O)C1CCS(=O)(=O)CC1)[C@@H](c1ccc(N[C@@H]2Cc3ccc(Cl)cc3C2)cn1)C(F)(F)F (single isomer, unassigned) [Example 200] |
| 6.96 | CN1CC(=O)NCC1C(=O)N(C)[C@@H](c1ccc(N[C@H]2Cc3ccccc3C2(C)C)cn1)C(F)(F)F (single isomer, unassigned) [Example 201] |
| 6.80 | CN1CC(=O)NCC1C(=O)N(C)[C@@H](c1ccc(N[C@H]2Cc3ccccc3C2(C)C)cn1)C(F)(F)F (single isomer, unassigned) [Example 202] |
| 6.92 | CN(C(=O)[C@H]1C[C@@]2(COC(=O)N2)C1)[C@@H](c1ccc(NC2Cc3ccccc3C2(C)C)cn1)C(F)(F)F (single isomer, unassigned) [Example 207] |
| 6.70 | CN(C(=O)C1CN(S(C)(=O)=O)C1)[C@@H](c1ccc(NC2Cc3ccccc3C2(C)C)cn1)C(F)(F)F (single isomer, unassigned) [Example 210] |
| 6.89 | CN(C(=O)CN1CC(=O)NC1=O)[C@@H](c1ccc(NC2Cc3ccccc3C2(C)C)cn1)C(F)(F)F (single isomer, unassigned) [Example 212] |
| 6.30 | CN(C(=O)CN1CC(=O)NC1=O)[C@@H](c1ccc(NC2Cc3ccccc3C2(C)C)cn1)C(F)(F)F (single isomer, unassigned) [Example 213] |
| 6.49 | CN(C(=O)C1C2CS(=O)(=O)CC21)[C@@H](c1ccc(NC2Cc3ccccc3C2(C)C)cn1)C(F)(F)F (single isomer, unassigned) [Example 214] |
| 6.77 | CN(C(=O)C1C2CS(=O)(=O)CC21)[C@@H](c1ccc(NC2Cc3ccccc3C2(C)C)cn1)C(F)(F)F (single isomer, unassigned) [Example 217] |
| 6.85 | CN(C(=O)C1CC2(CCC(=O)N2)C1)[C@@H](c1ccc(NC2Cc3ccccc3C2(C)C)cn1)C(F)(F)F (single isomer, unassigned) [Example 229] |
| 6.96 | CN(C(=O)C1CC2(CCC(=O)N2)C1)[C@@H](c1ccc(NC2Cc3ccccc3C2(C)C)cn1)C(F)(F)F (single isomer, unassigned) [Example 231] |
| 6.68 | CC(=O)N1CCC12CC(C(=O)N(C)[C@@H](c1ccc(NC3Cc4ccccc4C3(C)C)cn1)C(F)(F)F)C2 (single isomer, unassigned) [Example 236] |
| 6.33 | CNC(=O)N1CCC12CC(C(=O)N(C)[C@@H](c1ccc(NC3Cc4ccccc4C3(C)C)cn1)C(F)(F)F)C2 (single isomer, unassigned) [Example 238] |
| 6.82 | CNC(=O)N1CCC12CC(C(=O)N(C)[C@@H](c1ccc(NC3Cc4ccccc4C3(C)C)cn1)C(F)(F)F)C2 (single isomer, unassigned) [Example 239] |

| SMILES | pIC50 |
| --- | --- |
| CN(C(=O)C1CN2CCC1CC2)[C@@H](c1ccc(NC2Cc3ccccc3C2(C)C)nc1)C(F)(F)F (single isomer, unassigned) [Example 120] | 6.11 |
| CN(C(=O)C1CN2CCC1CC2)[C@@H](c1ccc(NC2Cc3ccccc3C2(C)C)nc1)C(F)(F)F (single isomer, unassigned) [Example 121] | 6.29 |
| CN(C(=O)C1CN2CCC1CC2)[C@@H](c1ccc(NC2Cc3ccccc3C2(C)C)nc1)C(F)(F)F (single isomer, unassigned) [Example 122] | 5.94 |
| CN(C(=O)C1CN2CCC1CC2)[C@@H](c1ccc(NC2Cc3ccccc3C2(C)C)nc1)C(F)(F)F (single isomer, unassigned) [Example 123] | 6.06 |
| CN(C(=O)C1CN2CCC1CC2)[C@@H](c1ccc(NC2Cc3ccccc3C2(C)C)cn1)C(F)(F)F (single isomer, unassigned) [Example 138] | 6.11 |
| CN(C(=O)C1CN2CCC1CC2)[C@@H](c1ccc(NC2Cc3ccccc3C2(C)C)cn1)C(F)(F)F (single isomer, unassigned) [Example 139] | 6.43 |
